Consider two molecules from patent US8759384B2, “Oxo-imidazolyl compounds” (priority 2008, dated 2014).

Each structure is given as a SMILES string.

The test system of experiment [1] is Staphylococcus aureus MRSA. As to the kind of experiment: microbe, parasite or virus in culture. The class given is cell-based. As to conditions: Conc. 3 μM, read-out: Inhibitive activity MRSA (% inhibition of growth).
The subject of experiment [2] is B. anthracis ΔSterne. As to the kind of experiment: microbe, parasite or virus in culture. The class given is cell-based. To be noted: Bacillus anthracis; Conc. 3 μM; read-out: Inhibitive activity Anthracis (% inhibition of growth).

On to `O=C(O)C(Cc1ccccc1)N1C(=O)/C(=C\c2ccc(-c3ccc(Cl)c(Cl)c3)o2)NC1=S` (centres unmarked) [EX. 6, 2-(4-((5-(3,4-Dichlorophenyl)furan-2-yl)methylene)-5-oxo-2-thioxoimidazolidin-1-yl)-3-phenylpropanoic acid], for which the inhibition (commonly the change of the read-out against control, counted positive when it falls) at 3 µM in experiment [1] is -3.72%.
As for `O=C(O)C(Cc1ccccc1)N1C(=O)/C(=C\c2ccc(-c3ccc(Br)cc3)s2)NC1=S` (centres unmarked) [EX. 7, 2-(4-((5-(4-Bromophenyl)thiophen-2-yl)methylene)-5-oxo-2-thioxoimidazolidin-1-yl)-3-phenylpropanoic acid], the inhibition at 3 µM in experiment [2] is 67.9%.
